Earlier results, collected in patent publication US20240238336A1, “COPPER NANOCLUSTERS, METHODS FOR OBTAINING SAME AND THE USE THEREOF IN THE TREATMENT OF MENKES DISEASE” (priority 2021, published 2024).

Test system: Menkes syndrome
Settings: child; daily subcutaneous injections for two and a half years

N[C@@H](Cc1c[nH]cn1)C(=O)O.[Cu] [copper histidine]
development: continued to manifest severe developmental delays
epilepsy crises: epilepsy crises were eliminated
pigmentation of skin and hair: improved pigmentation of the skin and hair
